Measured values as given in patent US9359311B2, “Substituted aromatic oligomers” (NEUROSCIOS GMBH, priority 2011, dated 2016).

Legend:
[1] = target: T1, biotinylated Aβ1-42 (Homo sapiens, UniProt P05067); test: Inhibition of Abeta oligomerisation (biotinylated Aβ1-42, neutravidin plate, streptavidin-HRP); type: biochemical; conditions: inhibition of Aβ1-42 aggregation, approximately 12 nM Aβ1-42, PBS pH 7.4, 2% DMSO, 30 min RT
T1 construct: To assure monomerisation of biotinylated Aβ1-42 (Anaspec #23523-0.5) the peptide was thoroughly monomerised; purchased Anaspec 23523-0.5

[2] = system: primary chicken neurons; test: Inhibition of Abeta 1-42 toxicity on primary chicken neurons (MTT); type: cell-based; set-up: key: No: no effect; +: minor positive effect on cell viability in the presence of aggregated Aβ 1-42; ++: medium positive effect on cell viability in the presence of aggregated Aβ 1-42; +++: strong positive effect on cell viability in the presence of aggregated Aβ 1-42; conditions: 10 μM Aβ1-42 aggregated together with compound for 48 h
Experimental: One-day-old fertilized eggs are stored under appropriate conditions until start of breeding. On embryonic day 0 eggs are transferred to the breeding incubator and under turning, kept at 37.8° C. and 55% humidity until embryonic day eight. Neurons are prepared as follows: In short, embryos are transferred to a plastic dish, and decapitated. Both brain hemispheres are removed, collected and any loose tissue removed. Hemispheres are mechanically dissociated and 4.8×10^4 cells per well (96-well plates) are seeded in a volume of 160 μl.
Aβ1-42 (MW 4514.1) was obtained from American Peptide Company as a lyophilized powder. A stock solution of 340 μM Aβ1-42 was prepared in 50 mM Tris-Buffer, 150 mM NaCl, pH7.6 according to the manufacturer's instructions. After sonication, the stock solution is diluted 1:1 with the test compounds to obtain a concentration of 170, 17 and 1.7 μM. After aggregation at 4° C. for 48 h, the solutions are sonicated again prior to application to the cells. The final concentration of Aβ1-42 applied to the primary chicken neurons is 10 μM.
Aβ1-42 aggregated together with compound for 48 hrs was applied to chicken neurons at DIV4 (days in vitro) and analyzed at DIV10 (144 hrs) and all others were applied to chicken neurons at DIV6 and analysed at DIV10 (96 hrs).
Viability of cultures is determined by the MTT assay. The MTT assay allows for the measurement of the mitochondrial dehydrogenase activity which reduces yellow MTT to dark blue formazan crystals. Since this reaction is catalyzed in living cells only this assay is used for the determination of cell viability. MTT solution is added to each well in a final concentration of 0.5 mg/ml. After 2 hours the MTT containing medium is aspired. Cells are lysed in 3% SDS and the formazan crystals are dissolved in isopropanol/HCl. Optical density is measured with a plate-reader at wavelength 570 nm. Cell survival rate is expressed as a percentage of optical density (OD) relative to control cells not treated with Aβ or compound.

T1 sequence (P05067 672-713 limits assumed): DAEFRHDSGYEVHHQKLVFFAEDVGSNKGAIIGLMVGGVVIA

IC50 [1]: 794 nM
SMILES: O=C(O)Cc1ccsc1-c1ccc(-c2sc(-c3ccc(-c4cc(CC(=O)O)c(-c5ccc(-c6sccc6CC(=O)O)s5)s4)s3)cc2CC(=O)O)s1 [Example 1, 2-(2-{5-[3-(Carboxymethyl)-5-{5-[4-(carboxymethyl)-5-{5-[3-(carboxymethyl)thiophen-2-yl]thiophen-2-yl}thiophen-2-yl]thiophen-2-yl}thiophen-2-yl]thiophen-2-yl}thiophen-3-yl)acetic acid]
Rescue of Abeta toxicity (MTT) ([2]; Conc. 0.1 μM): no
Rescue of Abeta toxicity (MTT) ([2]; Conc. 1 μM): +++
Rescue of Abeta toxicity (MTT) ([2]; Conc. 10 μM): +++
